Data: the supplement of paper PMC9912026

Test system: A375_NRAS_Q61K_DOXind
Test: pERK immunofluorescence relative to uninduced (no doxycycline), no-drug control; higher = more ERK phosphorylation (less pathway inhibition)
Settings: drug treatment time 24 h, doxycycline pre-induction time 24 h, vemurafenib background 0 µM
Experimental: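 pERK was measured by immunofluorescence with FLAG-negative cells excluded. Averages of 2 technical replicates.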

CCCS(=O)(=O)Nc1ccc(F)c(C(=O)c2c[nH]c3ncc(-c4ccc(Cl)cc4)cc23)c1F [Vemurafenib] + O=C(c1ccc(F)c(F)c1Nc1ccc(I)cc1F)N1CC(O)([C@@H]2CCCCN2)C1 [Cobimetinib]
pERK immunofluorescence
Settings	drug B concentration 0 µM	drug B concentration 0.0001 µM	drug B concentration 0.0003162 µM	drug B concentration 0.001 µM	drug B concentration 0.00316228 µM	drug B concentration 0.01 µM	drug B concentration 0.0316228 µM	drug B concentration 0.1 µM	drug B concentration 0.316228 µM	drug B concentration 1 µM
drug A concentration 0 µM, doxycycline 0 ng/mL	–	0.771	0.877	0.692	0.269	0.0826	0.0415	0.0295	0.0213	0.0214
drug A concentration 0 µM, doxycycline 1000 ng/mL	–	1.26	1.36	1.23	1.11	1.03	0.769	0.29	0.0675	0.0264
drug A concentration 0.000316 µM, doxycycline 0 ng/mL	0.894	0.847	0.89	0.663	0.253	0.078	0.0417	0.0283	0.023	0.0216
drug A concentration 0.000316 µM, doxycycline 1000 ng/mL	1.23	1.24	1.3	1.22	1.11	1.06	0.763	0.322	0.073	0.0271
drug A concentration 0.001 µM, doxycycline 0 ng/mL	0.854	0.807	0.827	0.652	0.277	0.0707	0.0373	0.0262	0.0201	0.0201
drug A concentration 0.001 µM, doxycycline 1000 ng/mL	1.15	1.21	1.26	1.29	1.15	1.08	0.761	0.326	0.0778	0.0269
drug A concentration 0.00316 µM, doxycycline 0 ng/mL	0.761	0.816	0.887	0.555	0.229	0.0664	0.0382	0.0255	0.0206	0.0196
drug A concentration 0.00316 µM, doxycycline 1000 ng/mL	1.12	1.17	1.31	1.25	1.13	1.01	0.763	0.311	0.0715	0.0264
drug A concentration 0.01 µM, doxycycline 0 ng/mL	0.697	0.719	0.752	0.525	0.207	0.0636	0.0366	0.0258	0.0201	0.0203
drug A concentration 0.01 µM, doxycycline 1000 ng/mL	1.16	1.21	1.28	1.31	1.21	1.02	0.741	0.32	0.0751	0.0284
drug A concentration 0.0316 µM, doxycycline 0 ng/mL	0.485	0.57	0.578	0.357	0.142	0.0532	0.0338	0.0248	0.0205	0.0197
drug A concentration 0.0316 µM, doxycycline 1000 ng/mL	1.08	1.11	1.22	1.27	1.05	0.964	0.683	0.254	0.0677	0.0258
drug A concentration 0.1 µM, doxycycline 0 ng/mL	0.316	0.286	0.274	0.161	0.0758	0.0428	0.0306	0.0226	0.0207	0.0198
drug A concentration 0.1 µM, doxycycline 1000 ng/mL	1.2	1.18	1.31	1.21	1.12	1.05	0.766	0.294	0.0731	0.0266
drug A concentration 0.316228 µM, doxycycline 0 ng/mL	0.107	0.0916	0.1	0.0715	0.0458	0.0352	0.0271	0.0216	0.0197	0.019
drug A concentration 0.316228 µM, doxycycline 1000 ng/mL	1.17	1.21	1.26	1.25	1.15	1.08	0.736	0.279	0.069	0.0251
drug A concentration 1 µM, doxycycline 0 ng/mL	0.0542	0.0554	0.0566	0.0507	0.0389	0.0323	0.0252	0.0202	0.019	0.0186
drug A concentration 1 µM, doxycycline 1000 ng/mL	1.12	1.21	1.32	1.26	1.15	1.06	0.675	0.212	0.0608	0.0248
drug A concentration 3.16 µM, doxycycline 0 ng/mL	0.0469	0.0457	0.0485	0.044	0.038	0.0293	0.0233	0.02	0.0191	0.0188
drug A concentration 3.16 µM, doxycycline 1000 ng/mL	1.07	1.14	1.22	1.27	1.12	0.941	0.478	0.129	0.0468	0.0219
drug A concentration 10 µM, doxycycline 0 ng/mL	0.0377	0.0388	0.0357	0.0351	0.0307	0.0237	0.0219	0.0199	0.019	0.0193
drug A concentration 10 µM, doxycycline 1000 ng/mL	0.905	1.01	1.04	1.02	0.868	0.553	0.145	0.0465	0.0237	0.0194
